In ChEMBL document CHEMBL4619748, “Enhancing the activity of membrane remodeling epsin-peptide by trimerization” (Bioorg Med Chem Lett, 2020):
Calls of active or inactive are those of the source. The calls are words filed in the database; no cut-off is given here. Starred links: 1 amine or outer side, 2 acyl side, 3 side chain; linkers in the order of their positions; H or OH if unused. Positions of bridges follow the written chain, without caps; N, C: chain ends. Non-standard residues stand in square brackets, D forms with d. Chains are numbered I, II in the order given. εLys = N[C@@H](CCCCN[*:1])C(=O)[*:2]; Nle = CCCC[C@H](N)C(=O)O

Assays:
[1] = Cytotoxicity against human HeLa cells assessed as cell viability at <=1 uM by WST8 assay; type: cell-based; settings: read-out: Activity
[2] = tested on: Lipid bilayer; assay: Induction of membrane-remodelling in DOPE bilayer assessed as phase transition temperature required for conversion of lamellar L-alpha phase to inverted hexagonal HII phase at peptide to lipid molar ratio of 1:100 by solid-state 31P NMR analysis (reference value: 25 degC)
[3] = tested on: HeLa; assay: Induction of membrane-remodelling in human HeLa cells assessed as loosening of the lipid package by measuring decrease in generalized polarization of cell membrane at 0.5 uM incubated for 10 mins by di-4-ANEPPDHQ polarity-sensitive fluorescent membrane probe based confocal microscopic method; type: cell membranes
[4] = tested on: HeLa; assay: Cytotoxicity against human HeLa cells assessed as proportion of cells with ruptured cell membrane at 1 uM incubated for 30 mins in presence of 10 uM FITC-R8 peptide by propidium iodide staining based assay; settings: 0.5 h
[5] = tested on: HeLa; assay: Induction of membrane-remodelling in human HeLa cells assessed as increase in cell internalization of FITC-R8 peptide at 0.25 uM incubated for 30 mins by PI staining based assay; type: cell membranes
[6] = tested on: HeLa; assay: Induction of membrane-remodelling in human HeLa cells assessed as increase in cell internalization of FITC-R8 peptide at 0.5 uM incubated for 30 mins by PI staining based assay relative to control; type: cell membranes
[7] = tested on: HeLa; assay: Induction of membrane-remodelling in human HeLa cells assessed as increase in cell internalization of FITC-R8 peptide at 1 uM incubated for 30 mins by PI staining based assay; type: cell membranes
[8] = tested on: Lipid bilayer; assay: Binding affinity to POPC/POPS (3:1) LUVs assessed as stabilization of drug peptide's alpha helical signature with CD minima at around 208 and 222 nm and a positive ellipticity below 200 nm at 6.7 uM by CD spectroscopy

Q: Which viability [1] does the source give for “I: H-[Nle]SSLRRQ[Nle]KNIVHNYS[εLys]GKGKG-OH / II: H-[Nle]SSLRRQ[Nle]KNIVHNYS / III: H-[Nle]SSLRRQ[Nle]KNIVHNYS (amide I:19-III:C, I:21-II:C)” here?
A: > 90%

Q: What about the T [2] of the same substance?
A: 46 °C

Q: What about the Activity [3] of the same substance?
A: Active

Q: And the Activity [4]?
A: > 10%

Q: What about the Activity [5] of the same substance?
A: Active

Q: And the Activity [6]?
A: 60%

Q: And the Activity [7]?
A: inactive

Q: And the Activity [8]?
A: Active
